Measured values: US12484575B2, “Mosquito egg cryopreservation” (Sanaria Inc., priority 2019, dated 2025)

Columns and labels:
larvae of An. gambiae = conditions: used with common methodologies; cited from earlier work
[1] = tested on: An. stephensi SD500 mosquito eggs; assay: Hatch rate of An. stephensi eggs after two-step CPA incubation, plunge into LN2 and thawing/dilution; format: in vivo, Anopheles stephensi; conditions: for Average ranked score of hatch rates (1 best to 4): thirteen experiments
Description: (§1) CPA was contained in a polypropylene 19 mm diameter×19 mm deep paint mixing pot (Michaels 10271583) embedded in a custom aluminum block machined to cover a Peltier-cooled block (Torrey Pines Scientific, IC22XT). CPA was equilibrated to temperature for >2 h prior to addition of eggs for the first incubation step at −6.8° C. Temperature was monitored using a digital thermometer with type-T thermocouple probe in a control sample in the block. Several relatively low molecular weight CPAs were evaluated at different concentrations for toxicity by incubation at 0° C. for up to 15 minutes, including: dimethylacetamide, dimethylformamide, dimethyl sulphoxide, ethanol, ethylene glycol, formamide, glycerol, H4-methanol (also referred to herein as “methanol”), D4 (deuterated)-methanol, D4/^13C-methanol, methylacetamide, propanediol, (sourced from SigmaAldrich); combinations in different ratios were also evaluated.

Anopheles eggs [2] = assay: Evaluation of low molecular weight CPAs and CPA concentrations for toxicity and egg viability; format: in vivo, Anopheles stephensi
Description: as §1
Percentages (v/v) of methanol and D4-methanol in water solutions were evaluated at between 50% and 100% aqueous CPA, namely, 50%, 70%, and 90%, and compared to CPA concentrations of 100%.

[3] = ambient temperatures; cited from earlier work
An. gambiae embryos = conditions: used as permeabilization reagents; cited from earlier work
Anopheles eggs [4] = conditions: 100% methanol, 20 minutes at −11° C., after subsequent cooling and warming/dilution
Description: Control eggs warmed/diluted from −11° C. (“Control”); eggs subsequently cooled in LN2 (“LN2”) before warming/dilution.
Once the first larval hatching was recorded, subsequent experiments recorded the percentage of larval hatch rate (number of larvae×100/number of eggs in the Petri dish) on day-3 post-thaw, and this was used as the measure of survival. In experiments measuring full development, the hatched larvae were fed standard larval food, pupae were harvested and transferred to rearing pans in 300×300×300 mm cages for adult mosquito emergence.

[5] = 100% CPA, compared with 50%, 70%, 90%

SMILES	Toxicity to larvae (larvae of An. gambiae)	Average ranked score of hatch rates (1 best to 4) ([1]; LN2 plunge boiling −196° C.)	Average ranked score of hatch rates (1 best to 4) ([1]; LN2 plunge chilled −202° C.)	Hatch rates versus methanol ([1]; coupled with cooling by plunge into chilled LN2)	Viability of eggs (Anopheles eggs [2]; [5])	Viability of eggs (Anopheles eggs [2]; CPA at 50% v/v in water)	Result among the CPAs evaluated (Anopheles eggs [2]; comparison of low molecular weight CPAs)	Viscosity increase relative to H4-methanol [3]	Toxicity to embryos (An. gambiae embryos)	Tolerance by and permeation of untreated eggs (Anopheles eggs [2]; untreated Anopheles eggs)	Proportion of eggs hatched (Anopheles eggs [4]) [%]
OCCO [ethylene glycol, reference compound]	highly toxic										
[2H]OC([2H])([2H])[2H] [D4-Methanol, D4-methanol]		2.47	2.20	marginally improved hatch rates	highest	a small percentage of viable eggs	best results	approximately 11%			
CCCCCCC [heptane]									extremely toxic to the embryos		
CO [Methanol, methanol]	highly toxic	2.87	2.27		highest	a small percentage of viable eggs				tolerated by, and to permeate, untreated Anopheles eggs	15.3±4.3
